The results in this text go back to patent US20040204368A1, “Oxadiazole derivative compounds and drugs containing these compounds as the active ingredient” (priority 2001, published 2004).

Structures are written as SMILES. pKi: −log10 of the molar value.

The experiment deals with T1, Cathepsin K (Homo sapiens, UniProt P43235).
T1 sequence (P43235 115-329): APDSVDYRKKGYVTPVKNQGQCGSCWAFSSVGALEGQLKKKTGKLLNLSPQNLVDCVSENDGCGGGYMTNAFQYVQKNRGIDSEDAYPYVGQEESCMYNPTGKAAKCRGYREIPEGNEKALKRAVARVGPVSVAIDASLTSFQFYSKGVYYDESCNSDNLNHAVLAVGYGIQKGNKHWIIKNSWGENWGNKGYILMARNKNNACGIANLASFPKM
The experiment can be described thus: Measurement of cathepsin K inhibitory activity. It is filed as biochemical. Conditions: Dixon plot, pH 5.5, 37° C. As for the experimental part:
(i) Measurement of Cathepsin K Inhibitory Activity
65 μL of Cathepsin K enzyme reaction buffer (50 mmol/L of 2-(N-morpholino)ethanesulfonate, 2 mmol/L of ethylene diamine tetraacetate (EDTA) and 4 mmol/L of dithio threitol (DTT) were mixed to adjust to pH 5.5), 5 μL of cysteine protease inhibitor solution of several concentrations, 20 μL of synthesized substrate (t-butyloxycarbonyl-L-alanyl-glycyl-L-prolyl-L-arginine-4-methyl-chromanyl-7-amide) solution of several concentrations and 10 μL of cathepsin K enzyme solution were mixed and the increase of fluorescence intensity when reacted at 37° C. was measured (Ex (excitation wavelength)=355 nm, Em (fluorescence wavelength)=460 nm). As to the substrate and the compound of the present invention, enzyme reactions were carried out in combination of several appropriate concentrations and Dixon plotting was prepared, to define the absolute value of X-coordinate of the intersection point of the graph as Ki value.

With `CC(C)CC(NC(=O)C1CCCCCC1)C(=O)c1nnc(SCCN(C)C)o1` (stereo not shown) [example 1], the pKi is 7.32.

In general, pKi refers to the negative decadic logarithm of the Ki, by convention in mol/L.
